Experimental data reported in patent publication US8859611B2, “Thiophene inhibitors of S-nitrosoglutathione reductase” (N30 Pharmaceuticals, Inc., priority 2009, dated 2014).

target: T1, GSNOR (Homo sapiens, UniProt P11766); experiment: GSNOR assay (in vitro inhibition of GSNOR activity, NADH absorbance at 340 nm); format: biochemical; settings: 100 mM NaPO4 pH 7.4, 0.240 mM GSNO, 0.300 mM NADH, 0.5 μg/mL GSNO Reductase, 1% DMSO, 25° C.; read-out: IC50 (GSNOR inhibitor activity)
T1 construct: made in house; host or cells: E. coli (arabinose-induced)
T1 sequence (P11766 whole entry): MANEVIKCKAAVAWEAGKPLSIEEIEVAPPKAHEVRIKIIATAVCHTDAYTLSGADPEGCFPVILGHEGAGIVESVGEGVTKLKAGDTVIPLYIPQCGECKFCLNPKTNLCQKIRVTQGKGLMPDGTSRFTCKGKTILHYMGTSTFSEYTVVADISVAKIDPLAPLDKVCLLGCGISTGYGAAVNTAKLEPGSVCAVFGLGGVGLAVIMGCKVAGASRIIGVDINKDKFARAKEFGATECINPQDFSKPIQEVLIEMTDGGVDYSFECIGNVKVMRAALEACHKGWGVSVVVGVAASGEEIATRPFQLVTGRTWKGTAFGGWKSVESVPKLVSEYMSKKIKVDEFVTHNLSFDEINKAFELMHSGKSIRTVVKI
Experimental: Various compounds were tested in vitro for their ability to inhibit GSNOR activity.
GSNOR expression and purification is described in Biochemistry 2000, 39, 10720-10729.
Pre-cultures were grown from stabs of a GSNOR glycerol stock in 2XYT media containing 100 ug/ml ampicillin after an overnight incubation at 37° C. Cells were then added to fresh 2XYT (4 L) containing ampicillin and grown to an OD (A600) of 0.6-0.9 at 37° C. before induction. GSNOR expression was induced with 0.1% arabinose in an overnight incubation at 20° C.
E. coli cell paste was lysed by nitrogen cavitation and the clarified lysate purified by Ni affinity chromatography on an AKTA FPLC (Amersham Pharmacia). The column was eluted in 20 mM Tris pH 8.0/250 mM NaCl with a 0-500 mM imidazole gradient. Eluted GSNOR fractions containing the Smt-GSNOR fusion were digested overnight with Ulp-1 at 4° C. to remove the affinity tag then re-run on the Ni column under the same conditions. GSNOR was recovered in the flowthrough fraction and for crystallography is further purified by Q-Sepharose and Heparin flowthrough chromatography in 20 mM Tris pH 8.0, 1 mM DTT, 10 uM ZnSO4.
GSNO and enzyme/NADH Solutions are made up fresh each day. The solutions are filtered and allowed to warm to room temperature. GSNO solution: 100 mM NaPO4 (pH 7.4), 0.480 mM GSNO. 396 μL of GSNO Solution is added to a cuvette followed by 8 μL of test compound in DMSO (or DMSO only for full reaction control) and mixed with the pipette tip. Compounds to be tested are made up at a stock concentration of 10 mM in 100% DMSO. 2 fold serial dilutions are done in 100% DMSO. 8 μL of each dilution are added to an assay so that the final concentration of DMSO in the assay is 1%. The concentrations of compounds tested range from 100 to 0.003 μM. Enzyme/NADH solution: 100 mM NaPO4 (pH 7.4), 0.600 mM NADH, 1.0 μg/mL GSNO Reductase. 396 μL of the Enzyme/NADH solution is added to the cuvette to start the reaction. The cuvette is placed in the Cary 3E UV/Visible Spectrophotometer and the change in 340 nm absorbance/min at 25° C. is recorded for 3 minutes. The assays are done in triplicate for each compound concentration. IC50's for each compound are calculated using the standard curve analysis in the Enzyme Kinetics Module of SigmaPlot.
Final assay conditions: 100 mM NaPO4, pH 7.4, 0.240 mM GSNO, 0.300 mM NADH, 0.5 μg/mL GSNO Reductase, and 1% DMSO. Final volume: 800 μL/cuvette.

IC50, < 1000 nM:
COc1ccc(-c2csc(CCC(=O)O)c2-c2ccc(C(N)=O)cc2C)cc1 [Example 1, 3-(3-(4-carbamoyl-2-methylphenyl)-4-(4-methoxyphenyl)thiophen-2-yl)propanoic acid]
COc1cc(Cl)ccc1-c1csc(CCC(=O)O)c1-c1ccc(C(N)=O)cc1 [Example 2, 3-(3-(4-carbamoylphenyl)-4-(4-chloro-2-methoxyphenyl)thiophen-2-yl)propanoic acid]
COc1cc(Cl)ccc1-c1csc(CCC(=O)O)c1-c1ccc(O)cc1 [Example 4, 3-(4-(4-chloro-2-methoxyphenyl)-3-(4-hydroxyphenyl)thiophen-2-yl)propanoic acid]
Cc1cc(C(N)=O)ccc1-c1c(-c2ccc(-n3ccnc3C)cc2)csc1CCC(=O)O [Example 7, 3-(3-(4-carbamoyl-2-methylphenyl)-4-(4-(2-methyl-1H-imidazol-1-yl)phenyl)thiophen-2-yl)propanoic acid]
Cc1nccn1-c1ccc(-c2csc(CCC(=O)O)c2-c2ccc(C(N)=O)cc2)cc1 [Example 8, 3-(3-(4-carbamoylphenyl)-4-(4-(2-methyl-1H-imidazol-1-yl)phenyl)thiophen-2-yl)propanoic acid]
Cc1cc(NS(C)(=O)=O)ccc1-c1c(-c2ccc(-n3ccnc3C)cc2)csc1CCC(=O)O [Example 9, 3-(4-(4-(2-methyl-1H-imidazol-1-yl)phenyl)-3-(2-methyl-4-(methylsulfonamido)phenyl)thiophen-2-yl)propanoic acid]
Cc1cc(C(N)=O)ccc1-c1c(-c2ccc(-n3ccnc3C)s2)csc1CCC(=O)O [Example 11, 3-(4′-(4-carbamoyl-2-methylphenyl)-5-(2-methyl-1H-imidazol-1-yl)-2,3′-bithiophen-5′-yl)propanoic acid]
Cc1cc(NS(C)(=O)=O)ccc1-c1c(-c2ccc(-n3ccnc3C)s2)csc1CCC(=O)O [Example 12, 3-(5-(2-methyl-1H-imidazol-1-yl)-4′-(2-methyl-4-(methylsulfonamido)phenyl)-2,3′-bithiophen-5′-yl)propanoic acid]
Cc1cc(C(N)=O)ccc1-c1c(-c2ccc(Br)cc2)csc1CCC(=O)O [Example 13, 3-(4-(4-bromophenyl)-3-(4-carbamoyl-2-methylphenyl)thiophen-2-yl)propanoic acid]
COc1ccc(-c2scc(CCC(=O)O)c2-c2ccc(C(N)=O)cc2C)cc1 [Example 14, 3-(4-(4-carbamoyl-2-methylphenyl)-5-(4-methoxyphenyl)thiophen-3-yl)propanoic acid]
